{"source": "patent US10793580B2", "about": "“Substituted pyrazoloazepin-8-ones and their use as phosphodiesterase inhibitors” (LEO Pharma A/S, priority 2016, dated 2020)", "data": [{"biological_target": "human PDE4D catalytic domain (Homo sapiens (Human), UniProt Q08499)", "sequence (Q08499 380-740)": "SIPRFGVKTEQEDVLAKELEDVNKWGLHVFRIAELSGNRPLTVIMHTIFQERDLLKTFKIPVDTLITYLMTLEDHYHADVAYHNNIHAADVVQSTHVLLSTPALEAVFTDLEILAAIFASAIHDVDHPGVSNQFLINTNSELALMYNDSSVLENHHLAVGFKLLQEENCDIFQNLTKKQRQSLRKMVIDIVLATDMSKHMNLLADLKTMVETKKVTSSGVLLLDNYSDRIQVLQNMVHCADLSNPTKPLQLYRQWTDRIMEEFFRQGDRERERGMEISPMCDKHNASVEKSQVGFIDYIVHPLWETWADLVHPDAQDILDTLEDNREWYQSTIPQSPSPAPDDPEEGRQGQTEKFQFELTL", "assay": "PDE4 Assay (TR-FRET, FAM-cAMP cleavage)", "assay_type": "biochemical", "conditions": "Table 16, Examples 277-296; read-out: PDE4 IC50 range", "summary_of_the_method": "(§1)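 PDE4D catalytic domain (S380-L740) incubated briefly with unlabelled cAMP plus FAM-cAMP and titrated compound. Reaction stopped with binding buffer holding metal-ion nanoparticles that bind AMP phospho groups and Tb donor, and AMP formation read by TR-FRET. IC50 versus controls, reported as ranges (nM).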", "units": {"IC50": "nM"}, "values": [{"smiles": "CCn1nc(C[C@@H](C)COC(=O)C2CCN(C(=O)N(C)C)CC2)c2c1C(=O)NCC1(CCOCC1)C2", "note": "[Example 296, [(2R)-3-(1-ethyl-8-oxo-spiro[6,7-dihydro-4H-pyrazolo[3,4-c]azepine-5,4′-tetrahydropyran]-3-yl)-2-methyl-propyl] 1-(dimethylcarbamoyl)piperidine-4-carboxylate]", "IC50": "< 100"}, {"smiles": "CCn1nc(C[C@@H](C)COC(=O)c2cnc(C)o2)c2c1C(=O)NCC1(CCOCC1)C2", "note": "[Example 282, [(2R)-3-(1-ethyl-8-oxo-spiro[6,7-dihydro-4H-pyrazolo[3,4-c]azepine-5,4′-tetrahydropyran]-3-yl)-2-methyl-propyl] 2-methyloxazole-5-carboxylate]", "IC50": "< 100"}]}, {"biological_target": "human PDE4D catalytic domain (Homo sapiens (Human), UniProt Q08499)", "assay": "PDE4 Assay (TR-FRET, FAM-cAMP cleavage)", "assay_type": "biochemical", "conditions": "human PDE4D catalytic domain (UniProt Q08499 [S380-L740]); 50% inhibition of substrate cleavage; read-out: PDE4 IC50 range", "summary_of_the_method": "as §1", "units": {"IC50": "nM"}, "values": [{"smiles": "CCc1ccc(C(=O)OCCCc2nn(CC)c3c2CC2(CCOCC2)CNC3=O)cc1", "note": "[Example 15, 3-(1-ethyl-8-oxo-spiro[6,7-dihydro-4H-pyrazolo[3,4-c]azepine-5,4′-tetrahydropyran]-3-yl)propyl 4-ethylbenzoate]", "IC50": "< 100"}, {"smiles": "CCn1nc(CC(C)(C)COC(=O)c2cccc(C(=O)N3CCCCC3)c2)c2c1C(=O)NCC1(CCOCC1)C2", "note": "[Example 231, [3-(1-ethyl-8-oxo-spiro[6,7-dihydro-4H-pyrazolo[3,4-c]azepine-5,4′-tetrahydro-pyran]-3-yl)-2,2-dimethyl-propyl] 3-(piperidine-1-carbonyl)benzoate]", "IC50": "< 100"}, {"smiles": "CCn1nc(CCCCOC(=O)c2ccc(C(=O)N3CCOCC3)cc2)c2c1C(=O)NCC1(CCOCC1)C2", "note": "[Example 133, 4-(1-ethyl-8-oxo-spiro[6,7-dihydro-4H-pyrazolo[3,4-c]azepine-5,4′-tetrahydropyran]-3-yl)butyl 4-(morpholine-4-carbonyl)benzoate]", "IC50": "< 100"}, {"smiles": "CCn1nc(CC(C)(C)COC(=O)CCOC)c2c1C(=O)NCC1(CCOCC1)C2", "note": "[Example 186, [3-(1-ethyl-8-oxo-spiro[6,7-dihydro-4H-pyrazolo[3,4-c]azepine-5,4′-tetrahydropyran]-3-yl)-2,2-dimethyl-propyl] 3-methoxypropanoate]", "IC50": "< 100"}, {"smiles": "CCn1nc(CCCOC(=O)c2ccc(C)cc2F)c2c1C(=O)NCC1(CCOCC1)C2", "note": "[Example 18, 3-(1-ethyl-8-oxo-spiro[6,7-dihydro-4H-pyrazolo[3,4-c]azepine-5,4′-tetrahydropyran]-3-yl)propyl 2-fluoro-4-methyl-benzoate]", "IC50": "< 100"}, {"smiles": "CCn1nc(C[C@@H](C)COC(=O)c2ccc(C(=O)N3CCCC3)cc2)c2c1C(=O)NCC1(CCOCC1)C2", "note": "[Example 172, [(2R)-3-(1-ethyl-8-oxo-spiro[6,7-dihydro-4H-pyrazolo[3,4-c]azepine-5,4′-tetrahydropyran]-3-yl)-2-methyl-propyl] 4-(pyrrolidine-1-carbonyl)benzoate]", "IC50": "< 100"}, {"smiles": "CCn1nc(CC(C)(C)COC(=O)c2ccc(F)cc2)c2c1C(=O)NCC1(CCOCC1)C2", "note": "[Example 192, [3-(1-ethyl-8-oxo-spiro[6,7-dihydro-4H-pyrazolo[3,4-c]azepine-5,4′-tetrahydropyran]-3-yl)-2,2-dimethyl-propyl] 4-fluorobenzoate]", "IC50": "< 100"}, {"smiles": "CCn1nc(CCCOC(=O)c2cnc(C)o2)c2c1C(=O)NCC1(CCOCC1)C2", "note": "[Example 241, 3-(1-ethyl-8-oxo-spiro[6,7-dihydro-4H-pyrazolo[3,4-c]azepine-5,4′-tetrahydropyran]-3-yl)propyl 2-methyloxazole-5-carboxylate]", "IC50": "< 100"}, {"smiles": "CCn1nc(C[C@@H](C)COC(=O)c2ccc(S(=O)(=O)CC)cc2)c2c1C(=O)NCC1(CCOCC1)C2", "note": "[Example 157, [(2R)-3-(1-ethyl-8-oxo-spiro[6,7-dihydro-4H-pyrazolo[3,4-c]azepine-5,4′-tetrahydropyran]-3-yl)-2-methyl-propyl] 4-ethylsulfonylbenzoate]", "IC50": "< 100"}, {"smiles": "CCn1nc(CCOC(=O)c2cnsc2)c2c1C(=O)NCC1(CCOCC1)C2", "note": "[Example 275, 2-(1-ethyl-8-oxo-spiro[6,7-dihydro-4H-pyrazolo[3,4-c]azepine-5,4′-tetrahydropyran]-3-yl)ethyl isothiazole-4-carboxylate]", "IC50": "< 100"}]}]}
